The values that follow come from patent EP4810492A1, “NMT INHIBITOR, PREPARATION METHOD THEREFOR, AND USE THEREOF” (Nanjing Synnocare Pharmaceutical Technology Co., Ltd., priority 2023, dated 2025).

One data set deals with T1, NMT1 enzyme (Homo sapiens, UniProt P30419).
T1 sequence (P30419 1-496): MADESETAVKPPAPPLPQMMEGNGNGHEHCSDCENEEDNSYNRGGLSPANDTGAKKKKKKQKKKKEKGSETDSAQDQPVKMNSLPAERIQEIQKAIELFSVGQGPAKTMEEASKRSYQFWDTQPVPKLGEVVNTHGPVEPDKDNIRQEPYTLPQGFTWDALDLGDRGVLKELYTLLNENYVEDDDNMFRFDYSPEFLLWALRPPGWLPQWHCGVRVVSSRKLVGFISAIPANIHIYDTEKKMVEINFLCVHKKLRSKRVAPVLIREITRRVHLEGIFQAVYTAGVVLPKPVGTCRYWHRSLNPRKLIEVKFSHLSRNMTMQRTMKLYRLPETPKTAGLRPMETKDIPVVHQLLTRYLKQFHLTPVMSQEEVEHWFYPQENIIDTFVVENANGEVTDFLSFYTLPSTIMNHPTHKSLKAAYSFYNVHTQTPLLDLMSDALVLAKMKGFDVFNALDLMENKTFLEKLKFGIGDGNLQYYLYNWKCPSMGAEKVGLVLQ
The experiment in a line: Inhibitory activity on NMT1 enzyme catalysis (fluorescence intensity assay). The format is biochemical. Here is the method:
This study evaluated the ability of the compounds of the invention to inhibit NMT1 catalytic activity in vitro. […] The final concentration of the NMT1 enzyme was 6 nM, the final concentration of CPM (Reactive thiol fluorescence probe, Invitrogen, D346) was 1 µM, the final concentration of HSPP60 SRC was 20 µM, and the final concentration of DMSO was 0.5%.
Compounds were dissolved in DMSO to obtain 10 mM stock solutions. Dose-response solutions were prepared with a top endpoint compound concentration of 3 mM, followed by three-fold serial dilutions in DMSO, totaling ten data points. […] Then, 2.5 µL of the NMT1 enzyme working solution was added to the 384-well assay plate, followed by incubation at 25 °C for 10 minutes. Subsequently, 5 µL of the CPM and myristoyl-CoA working solution was added, the plate was centrifuged at 1000 rpm for 1 minute, and then 2.5 µL of the HSPP60 SRC working solution was added to initiate the reaction. The reaction was incubated at 25 °C for 45 minutes.
The IC50 curve of the compounds was fitted using the software XLfit 5.5.0 according to the nonlinear regression equation.

The test system of the next data set is MV-4-11 cells. Briefly: Anti-proliferative activity against MV-4-11 cells (cell viability chemiluminescence). In kind it is cell-based. The note with it: MV4-11, 72 h, MV-4-11 human monocytic leukemia cells, three days of exposure. Here is the method:
This study utilized a cell proliferation assay to analyze the cytotoxicity of MV-4-11 human monocytic leukemia cells after three days of exposure to NMT1 inhibitors. The MV-4-11 cell line was purchased from Nanjing Cobuilder Biotechnology Co., Ltd., and cultured in IMDM medium (Viva cell) in an incubator (Thermo) at 37 °C with 5% CO2. In this experiment, NMT1 inhibitors were dissolved in DMSO to obtain 600 µM stock solutions. Dose-response solutions were prepared with a top endpoint compound concentration of 3 µM, followed by three-fold serial dilutions in DMSO, totaling eight data points. The final concentration of DMSO was 0.5%.
MV-4-11 cells were seeded into a white 96-well plate, 80 µL of cell suspension per well, containing 6000 MV-4-11 cells. The cell plate was placed in the CO2 incubator for overnight culture. Then, 20 µL of NMT1 inhibitor solutions at different concentrations were added to the wells. The 96-well plate was placed back into the incubator for three days. Another cell plate was prepared, and the signal was read on the day of drug addition to serve as the maximum value (Max value in the equation below) for data analysis. To this cell plate, 25 µL of cell viability chemiluminescence detection reagent was added per well, followed by incubation at room temperature for 10 minutes to stabilize the luminescence signal. A multi-label analyzer was used for reading.
The raw data were converted into inhibition rates using the equation (Sample - Min) / (Max - Min) * 100%. The IC50 values were then determined by fitting a four-parameter curve (using the "log(inhibitor) vs. response - Variable slope" model in GraphPad Prism). Min: wells treated with 0.5% DMSO; Max: Day 0 wells. Table 1 provides the inhibitory activity of the compounds of the invention on MV-4-11 cell proliferation. Table 1: Compound Inhibitory Activity against NMT1 Enzyme (IC50) and Anti-proliferative Activity against MV-4-11 Cell line (IC50)

Data set [1] can be described thus: Plasma concentrations in mice following oral administration. The note with it: ICR, mouse, po, 10 mg/kg.
Excerpt: This study evaluated the plasma concentrations of the compounds of the present invention in mice. ICR mice were procured from JOINN Laboratories (Suzhou) Co., Ltd. At the initiation of dosing, the animals were 6-8 weeks old and weighed 18-25 g. Mice were housed in transparent plastic cages (400 mm*240 mm*200 mm). The animal facility maintained a 12-hour light/12-hour dark cycle (lights on 07:00-19:00) using fluorescent lighting. The dark period may be intermittently interrupted as required for study-related activities. Ambient temperature and relative humidity were controlled within 20-26 °C and 40-70%, respectively. Animals were fed certified rodent chow and provided with drinking water filtered and sterilized through an ultrapure water system. All animals had ad libitum access to water throughout the study. Animals were fasted for at least 12 hours prior to dosing, and food was restored 4 hours post-dosing.
Prior to dosing, body weights were recorded, and healthy animals with similar weights were selected and randomly assigned to groups (n = 3 per group) based on body weight. The compounds were formulated in a 0.5% aqueous carboxymethyl cellulose (CMC) solution and administered orally at a single dose of 10 mg/kg. Blood samples (≥0.2 mL) were collected via venipuncture at 1 h and 4 h post-dose into EDTA-K2 anticoagulant tubes. Tubes were gently inverted to mix, immediately placed in an ice-water bath, and rapidly centrifuged at 4,000 rpm for 10 min at 4 °C to separate plasma. Plasma was stored at -70 °C until analysis.
Calibration curve and QC plasma samples: Working solutions for the calibration curve and QC samples were prepared using 80% methanol in water (Thermo Fisher) as the diluent. To prepare plasma calibration standards and QC samples, 5 µL of each working solution was added to 45 µL of blank plasma and mixed. To the prepared calibration and QC samples, 300 µL of internal standard solution (tolbutamide at 8 µg/mL in acetonitrile, Thermo Fisher) was added. […] The supernatant was collected and analyzed by liquid chromatography-tandem mass spectrometry (LC-MS/MS; AB Sciex API 5000).
Plasma sample pretreatment: After thawing at room temperature, 50 µL of each plasma sample was mixed with 300 µL of the internal standard solution (tolbutamide at 8 µg/mL in acetonitrile, Thermo Fisher). […] The supernatant was collected and analyzed by LC-MS/MS (AB Sciex API 5000).
Raw chromatograms, concentrations, and accuracy data were generated using Analyst software version 1.6.3.
Setting [2] is: 6 nM NMT1 enzyme, 1.25 µM myristoyl-CoA, 20 µM HSPP60 SRC peptide, 45 minutes at 25 °C, read-out: NMT1 (IC50).

The structures appear in SMILES notation. Read-outs that look alike come from different tables or passages of the source.

By IC50 is commonly meant the point on the concentration scale where inhibition reaches its midpoint. On to `Cc1nn(C)c(C)c1NS(=O)(=O)c1c(Cl)cc(-c2ccc3sc4c(c3c2)CNCC4)cc1Cl` [Compound 1, 2,6-dichloro-4-(1,2,3,4-tetrahydrobenzo[4,5]thieno[3,2-c]pyridin-8-yl)-N-(1,3,5-trimethyl-1H-pyrazol-4-yl)benzenesulfonamide], for which, on NMT1 enzyme (setting [2]), the 50% inhibitory concentration (IC50) came to 3.44 nM. This molecule returned a half-maximal inhibitory concentration (IC50) in the data set with MV-4-11 cells of 11.1 nM. Moreover, in data set [1], the concentration at 1 h was 1.82 ± 0.493 µg/mL, the concentration at 4 h is 1.35 ± 0.015 µg/mL and the concentration at 8 h amounted to 0.723 ± 0.363 µg/mL.
For `Cc1c(NS(=O)(=O)c2c(Cl)cc(-c3ccc4sc5c(c4c3)CNCC5)cc2Cl)c(CC(F)(F)F)nn1C` [Compound 17] the same measures were 5.62 nM, 62.5 nM, 5.1 ± 2.69 µg/mL, 4.08 ± 1.97 µg/mL and 3 ± 1.02 µg/mL.
For `Cc1c(NS(=O)(=O)c2c(Cl)cc(-c3ccc4sc5c(c4c3)CCNC5)cc2Cl)c(CC(C)C)nn1C` [Compound 54] the same measures were 4.73 nM, 38 nM, 3.32 ± 1.2 µg/mL, 2.31 ± 0.211 µg/mL and 0.981 ± 0.343 µg/mL.
Taken in the same sequence, the figures for `Cc1c(NS(=O)(=O)c2c(Cl)cc(-c3ccc4oc5c(c4c3)CNCC5)cc2Cl)c(CC#N)nn1C` [Compound B18] were 4.85 nM, 37 nM, 2.49 ± 1.21 µg/mL, 1.67 ± 0.467 µg/mL and 1.03 ± 0.157 µg/mL.
As for `Cc1c(NS(=O)(=O)c2c(Cl)cc(-c3ccc4oc5c(c4c3)CNCC5)cc2Cl)c(CC2CC2)nn1C` [Compound B26], the IC50 on NMT1 enzyme (setting [2]) was 2.87 nM. Half-maximal inhibition in the data set with MV-4-11 cells (IC50) required 11.4 nM. For the same molecule, in data set [1], the concentration at 1 h was found to be 4.63 ± 2.02 µg/mL, the concentration at 4 h was 3.38 ± 0.575 µg/mL and the concentration at 8 h came out at 2.15 ± 0.206 µg/mL.
For the molecule `Cc1c(NS(=O)(=O)c2ccc(-c3ccc4sc5c(c4c3)CNCC5)cc2)c(CC2CC2)nn1C` [Compound B30], the values for the half-inhibitory concentration (IC50) on NMT1 enzyme (setting [2]) and in the data set on MV-4-11 cells were 2.59 nM and 12.3 nM, respectively.
Take `Cc1c(NS(=O)(=O)c2c(Cl)cc(-c3ccc4oc5c(c4c3)CNCC5)cc2Cl)c(CC(F)(F)F)nn1C` [Compound B34]: the 50% inhibitory concentration (IC50) at NMT1 enzyme (setting [2]) was found to be 5.03 nM; with MV-4-11 cells, 61.8 nM.
For `Cc1c(NS(=O)(=O)c2c(Cl)cc(N3CCc4oc5c(c4C3)CNCC5)cc2Cl)c(CC(F)(F)F)nn1C` [Compound B36] the same measures were 2.75 nM and 26.2 nM.
`Cc1c(NS(=O)(=O)c2ccc(-c3ccc4sc5c(c4c3)CNCC5)cc2Cl)c(CC(F)(F)F)nn1C` [Compound B37]: the concentration for half-maximal inhibition (IC50) at NMT1 enzyme (setting [2]) was 2.21 nM; in the data set on MV-4-11 cells, 16.6 nM.
`Cc1c(NS(=O)(=O)c2ccc(-c3ccc4oc5c(c4c3)CNCC5)cc2Cl)c(CC(F)(F)F)nn1C` [Compound B39]: at NMT1 enzyme (setting [2]), the IC50 turned out to be 4.76 nM. In addition, half-maximal inhibition in the data set on MV-4-11 cells (IC50) required 40.1 nM. In data set [1], this molecule had a concentration at 1 h of 9.76 ± 0.41 µg/mL, a concentration at 4 h of 8.53 ± 1.17 µg/mL and a concentration at 8 h of 6.73 ± 1.45 µg/mL.
Regarding `Cc1c(NS(=O)(=O)c2ccc(-c3ccc4sc5c(c4c3)CNCC5)cc2)c(CC(F)(F)F)nn1C` [Compound B40], the IC50 against NMT1 enzyme amounted to 2.7 nM; in the data set with MV-4-11 cells (Homo sapiens) it was 11.3 nM.
`Cc1c(NS(=O)(=O)c2c(Cl)cc(-c3ccc4sc5c(c4c3)CNCC5)cc2Cl)c(CCF)nn1C` [Compound B43]: the 50% inhibitory concentration (IC50) on NMT1 enzyme (setting [2]) is 1.79 nM. Besides, 3.42 nM corresponded to half-maximal inhibition with MV-4-11 cells (IC50). In data set [1], this molecule showed a concentration at 1 h of 3.22 ± 0.65 µg/mL, a concentration at 4 h of 1.71 ± 0.224 µg/mL and a concentration at 8 h of 1.57 ± 0.104 µg/mL.
With `Cc1c(NS(=O)(=O)c2c(Cl)cc(-c3ccc4sc5c(c4c3)CCNC5)cc2Cl)c(CCF)nn1C` [Compound B44], the figures for the concentration for half-maximal inhibition (IC50) on NMT1 enzyme (setting [2]) and with MV-4-11 cells were 2.08 nM and 9.27 nM, respectively.
As for `Cc1c(NS(=O)(=O)c2c(Cl)cc(-c3ccc4oc5c(c4c3)CNCC5)cc2Cl)c(CCF)nn1C` [Compound B45], the 50% inhibitory concentration (IC50) on NMT1 enzyme (setting [2]) is 1.94 nM. The molecule also showed a half-inhibitory concentration (IC50) with MV-4-11 cells of 9.51 nM. Moreover, in data set [1], the concentration at 1 h came out at 5.04 ± 1.82 µg/mL, the concentration at 4 h was determined as 3.8 ± 0.621 µg/mL and the concentration at 8 h worked out at 3.73 ± 1.28 µg/mL.
Regarding `Cc1c(NS(=O)(=O)c2c(Cl)cc(N3CCc4sc5c(c4C3)CNCC5)cc2Cl)c(CCF)nn1C` [Compound B46], the IC50 worked out at 2.03 nM at NMT1 enzyme (setting [2]) and 3.61 nM in the data set on MV-4-11 cells.
In the case of `Cc1c(NS(=O)(=O)c2ccc(-c3ccc4sc5c(c4c3)CNCC5)cc2Cl)c(CCF)nn1C` [Compound B48], on NMT1 enzyme (setting [2]), the IC50 worked out at 1.89 nM. This molecule also had an IC50 in the data set with MV-4-11 cells of 3.26 nM. In data set [1], this molecule returned a concentration at 1 h of 2.96 ± 0.34 µg/mL, a concentration at 4 h of 1.4 ± 0.24 µg/mL and a concentration at 8 h of 0.447 ± 0.071 µg/mL.
For the molecule `Cc1c(NS(=O)(=O)c2ccc(-c3ccc4sc5c(c4c3)CCNC5)cc2Cl)c(CCF)nn1C` [Compound B49], the figures for the 50% inhibitory concentration (IC50) at NMT1 enzyme (setting [2]) and in the data set with MV-4-11 cells were 2.37 nM and 19.5 nM, respectively.
For `Cc1c(NS(=O)(=O)c2ccc(-c3ccc4oc5c(c4c3)CNCC5)cc2Cl)c(CCF)nn1C` [Compound B50] the same measures were 3.95 nM and 17.9 nM.
Taken in the same sequence, the figures for `Cc1c(NS(=O)(=O)c2ccc(-c3ccc4sc5c(c4c3)CNCC5)cc2)c(CCF)nn1C` [Compound B51] were 2.51 nM and 6.05 nM.
Turning to `Cc1c(NS(=O)(=O)c2ccc(-c3ccc4sc5c(c4c3)CCNC5)cc2)c(CCF)nn1C` [Compound B52], the IC50 on NMT1 enzyme (setting [2]) came to 3.88 nM. Besides, in the data set with MV-4-11 cells, the 50% inhibitory concentration (IC50) was determined as 17.3 nM. For the same molecule, in data set [1], the concentration at 1 h is 3.63 ± 0.99 µg/mL, the concentration at 4 h is 2.18 ± 0.185 µg/mL and the concentration at 8 h turned out to be 0.504 ± 0.071 µg/mL.
For the molecule `Cc1c(NS(=O)(=O)c2c(Cl)cc(-c3ccc4sc5c(c4c3)CNCC5)cc2Cl)c(CC(F)F)nn1C` [Compound B54], the values for the concentration for half-maximal inhibition (IC50) at NMT1 enzyme (setting [2]) and in the data set with MV-4-11 cells were 1.79 nM and 5.45 nM, respectively.
Taken in the same sequence, the figures for `Cc1c(NS(=O)(=O)c2c(Cl)cc(-c3ccc4sc5c(c4c3)CCNC5)cc2Cl)c(CC(F)F)nn1C` [Compound B55] were 3.72 nM and 21.1 nM.
Taken in the same sequence, the figures for `Cc1c(NS(=O)(=O)c2c(Cl)cc(-c3ccc4oc5c(c4c3)CNCC5)cc2Cl)c(CC(F)F)nn1C` [Compound B56] were 3.49 nM and 19.6 nM.
For `Cc1c(NS(=O)(=O)c2c(Cl)cc(N3CCc4sc5c(c4C3)CNCC5)cc2Cl)c(CC(F)F)nn1C` [Compound B57] the same measures were 2.95 nM and 11.8 nM.
With `Cc1c(NS(=O)(=O)c2c(Cl)cc(N3CCc4oc5c(c4C3)CCNC5)cc2Cl)c(CC(F)F)nn1C` [Compound B58], the IC50 was determined as 2.08 nM at NMT1 enzyme (setting [2]) and 8.97 nM in the data set with MV-4-11 cells.
`Cc1c(NS(=O)(=O)c2ccc(-c3ccc4oc5c(c4c3)CNCC5)cc2Cl)c(CC(F)F)nn1C` [Compound B61]: the IC50 on NMT1 enzyme (setting [2]) was 5.21 nM; with MV-4-11 cells, 27 nM.
On to `Cc1c(NS(=O)(=O)c2ccc(-c3ccc4sc5c(c4c3)CNCC5)cc2)c(CC(F)F)nn1C` [Compound B62], for which the concentration for half-maximal inhibition (IC50) at NMT1 enzyme (setting [2]) was found to be 2.47 nM; in the data set with MV-4-11 cells, 7.48 nM.
For `Cc1c(NS(=O)(=O)c2ccc(-c3ccc4sc5c(c4c3)CCNC5)cc2)c(CC(F)F)nn1C` [Compound B63] the same measures were 3.67 nM and 20.4 nM.
